Source: PubChem BioAssay (NCI)
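All cell lines were grown in 96-well plates and treated with compound for 48 hours. TGI is the concentration that stops growth completely.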

Key:
Test in all cases: growth of human tumour cells (NCI), 48 h
TK-10 renal = test system: TK-10 renal
M14 melanoma = test system: M14 melanoma
NCI-H460 lung = test system: NCI-H460 lung
U251 CNS = test system: U251 CNS
A549 NSCLC = test system: A549 NSCLC
RPMI-8226 leukemia = test system: RPMI-8226 leukemia
RXF 393 renal = test system: RXF 393 renal
HCT-116 colon = test system: HCT-116 colon
CCRF-CEM leukemia = test system: CCRF-CEM leukemia
HT29 colon = test system: HT29 colon

SMILES | TGI (TK-10 renal) [µM] | TGI (M14 melanoma) [µM] | TGI (NCI-H460 lung) [µM] | TGI (U251 CNS) [µM] | TGI (A549 NSCLC) [µM] | TGI (RPMI-8226 leukemia) [µM] | TGI (RXF 393 renal) [µM] | TGI (HCT-116 colon) [µM] | TGI (CCRF-CEM leukemia) [µM] | TGI (HT29 colon) [µM]
CC1=C(C(=O)NCc2ccccc2)C(c2ccco2)C(C(=O)NCc2ccccc2)=C(C)N1 | > 100 | > 100 | > 100 | > 100 | > 100 | > 100 | > 100 | > 100 | > 100 | > 100
COC(=O)/C=C\C(C#N)(C#N)N=Cc1ccc(Br)cc1 | 6.59 | 22.6 | 40.5 | 33.3 | > 74.8 | 5.74 | 17.8 | > 60.5 | 5.91 | 6.22
COC(=O)C(CNC(=O)/C=C/c1ccc(OC(C)=O)c(OC(C)=O)c1)NC(=O)/C=C/c1ccc(OC(C)=O)c(OC(C)=O)c1 (stereo not given) | > 100 | > 100 | > 100 | > 100 | > 100 | > 100 | > 100 | > 100 | > 100 | > 100
Cc1oc2nc(N(C)C)n3cnnc3c2c1C | > 100 | > 100 | > 100 | > 100 | > 100 | > 100 | > 100 | > 100 | > 100 | > 100
Nc1ccn(CC(O)c2cc3ccccc3[nH]2)c(=O)n1 (stereo not given) | > 100 | > 100 | > 100 | > 100 | > 100 | > 100 | > 100 | > 100 | > 100 | > 100
Cc1cc(OCc2nnc3n2N=C(c2cc(F)c(Cl)cc2Cl)/C(=C/c2ccc(-c4ccc(Cl)cc4)o2)S3)ccc1Cl | > 50 | > 50 | > 50 | > 50 | > 50 | 30.2 | > 50 | > 50 | > 50 | > 50
CCOC(=O)C1CCCN1C(=O)c1ccccc1Cl (stereo not given) | > 100 | > 100 | > 100 | > 100 | > 100 | > 100 | > 100 | > 100 | > 100 | > 100
C=C1CC(O)C2C(=C)C(=O)OC2C2C(C)C(=O)CC12 (stereo not given) | 18.7 | 25.6 | 58 | 59.1 | 41 | 39.2 | 17.4 | > 100 | 41.4 | 42.8
CC(C)=CCC[C@@H](C)C1=C(O)C(Nc2ccccc2)=C(C)C(=O)C1=O | > 100 | 34.9 | > 64.5 | > 100 | 45.5 | > 73.3 | 60.7 | > 75.6 | 5.78 | > 96.3
CCOC(=O)Cc1cc(=O)[nH]c(-n2[nH]c(C)c(CCO)c2=O)n1 | > 100 | > 100 | > 100 | > 100 | > 100 | > 100 | > 100 | > 100 | > 100 | > 100
CC(C)OP(=O)(OC(C)C)/C(C#N)=C/c1c[nH]c2ccccc12 | > 100 | > 100 | > 100 | > 100 | > 100 | > 100 | > 100 | > 100 | > 100 | > 100
Cc1ccc(S(=O)(=O)N/N=C\c2c3ccccc3[n+](C)c3ccccc23)cc1 | > 100 | 97.9 | 50.3 | 71.3 | > 100 | > 100 | 43.6 | > 100 | 44.2 | 62.6
CCCCCCCCCCOc1ccc(N=Nc2nnc(-c3ccc(OCCCCC)cc3)s2)cc1 | > 100 | > 100 | > 100 | > 100 | > 100 | > 100 | > 100 | > 100 | > 100 | > 100
